In PMC3003262 (Drug development research, 2010):
Where two headings read alike, the source gives them in different places.

Legend:
[1] = target: T1, human CB1 I271A mutant receptor (Homo sapiens, UniProt P21554, I271A); test: biochemical; type: binding; details: for loss in affinity relative to wild-type receptor: I271A receptor vs WT
[2] = target: T2, human CB1 wild-type (WT) receptor (Homo sapiens, UniProt P21554); test: Competition binding with [3H]SR141716A, wild-type CB1 membranes
[3] = target: T3, human CB1 P269A mutant receptor (Homo sapiens, UniProt P21554, P269A); test: biochemical; type: binding
T3 sequence (P21554 whole entry P269A): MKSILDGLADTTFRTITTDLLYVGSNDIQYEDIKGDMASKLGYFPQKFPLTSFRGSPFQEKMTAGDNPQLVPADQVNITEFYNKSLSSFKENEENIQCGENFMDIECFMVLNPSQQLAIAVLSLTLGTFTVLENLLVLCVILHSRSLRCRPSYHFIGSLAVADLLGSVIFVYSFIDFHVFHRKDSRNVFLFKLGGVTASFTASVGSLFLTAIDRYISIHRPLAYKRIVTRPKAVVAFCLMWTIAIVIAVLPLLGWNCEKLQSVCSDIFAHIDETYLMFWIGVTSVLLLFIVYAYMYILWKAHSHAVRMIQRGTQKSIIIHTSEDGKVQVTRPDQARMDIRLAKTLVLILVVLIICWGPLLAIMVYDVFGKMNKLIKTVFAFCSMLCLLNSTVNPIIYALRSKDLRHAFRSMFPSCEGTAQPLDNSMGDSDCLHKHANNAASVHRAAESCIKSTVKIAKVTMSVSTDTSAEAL

[4] = target: T4, human CB1 F268W mutant receptor (Homo sapiens, UniProt P21554, F268W); test: biochemical; type: binding; details: for loss in affinity relative to wild-type receptor: F268W receptor vs WT
T4 sequence (P21554 whole entry F268W): as the sequence (P21554 whole entry P269A) above, with F268W, A269P counted along it

[5] = target: human CB1 H270A mutant receptor (Homo sapiens, UniProt P21554, H270A); test: biochemical; type: binding
Sequence of human CB1 H270A mutant receptor (P21554 whole entry H270A): as the sequence (P21554 whole entry P269A) above, with A269P, H270A counted along it

[6] = target: T3, human CB1 P269A mutant receptor; details: cited from earlier work
[7] = target: T2, human CB1 wild-type (WT) receptor; details: cited from earlier work
[8] = target: T1, human CB1 I271A mutant receptor; details: cited from earlier work
[9] = target: T4, human CB1 F268W mutant receptor; details: cited from earlier work

T2 sequence (P21554 whole entry): as the sequence (P21554 whole entry P269A) above, with A269P counted along it
T1 sequence (P21554 whole entry I271A): as the sequence (P21554 whole entry P269A) above, with A269P, I271A counted along it

| SMILES | Ki [1] | loss in affinity relative to wild-type receptor [1] | Ki [2] | Ki [3] | Ki [4] | loss in affinity relative to wild-type receptor [4] | Ki [5] | binding affinity diminished relative to wild-type receptor (up to) [1] | Ki [6] | Ki [7] | Ki [8] | Ki [9] | reduced affinity relative to wild-type receptor ([3]; P269A receptor vs WT) | reduced affinity relative to wild-type receptor ([5]; H270A receptor vs WT) |
| --- | --- | --- | --- | --- | --- | --- | --- | --- | --- | --- | --- | --- | --- | --- |
| CS(=O)(=O)N(c1cc(F)cc(F)c1)C1CN(C(c2ccc(Cl)cc2)c2ccc(Cl)cc2)C1 [AVE1625, N-{1-[bis(4-chloro-phenyl)-methyl]azetidin-3-yl}-N-(3,5-difluorophenyl)methanesulfonamide] | 1.8 nM | 3 fold | 0.64 nM | 0.88 nM | 2.2 nM | 3 fold | 1.2 nM | – | – | – | – | – | – | – |
| N#Cc1c(Oc2cccc(OS(=O)(=O)CCCC(F)(F)F)c2)cccc1C(F)(F)F [BAY593074, 3-[2-cyano-3-(trifluoromethyl)phenoxy]phenyl-4,4,4-trifluoro-1-butanesulfonate] | 2870 nM | – | 249 nM | 341 nM | 1860 nM | – | 412 nM | up to 12 fold | – | – | – | – | – | – |
| CCCCCCC(C)(C)c1cc(O)c2c(c1)OC(C)(C)[C@@H]1CC=C(CO)C[C@@H]21 [HU-210, (−)-11-hydroxydimethylheptyl-Δ8-tetrahydrocannabinol] | – | – | – | – | – | – | 13.8 nM | – | 22.6 nM | 3.7 nM | 310 nM | 1670 nM | – | – |
| CCCCC(C)(C)c1cc(O)c2c(c1)OC(C)(C)C1CC=C(C)CC21 (stereo not drawn) [JWH061, 3-(1′,1′-dimethylpentyl)-Δ;8-tetrahydrocannabinol] | 773 nM | – | – | 1730 nM | 3460 nM | – | 373 nM | – | – | – | – | – | – | – |
| CC1=CCC2C(C1)c1c(O)cc(C(C)(C)C)cc1OC2(C)C (stereo not drawn) [JWH179, 3-(1′,1′-dimethylethyl)-Δ8-tetrahydrocannabinol] | 194 nM | – | – | 798 nM | 1110 nM | – | 90 nM | – | – | – | – | – | – | – |
| O=C(NN1CCCCC1)c1nn(-c2ccc(Cl)cc2Cl)c2c1CCCc1cc(Cl)ccc1-2 [NESS0327] | 11.2 nM | – | – | 3 nM | 21 nM | 5 fold | 6.1 nM | – | – | – | – | – | – | – |
| CCCCCc1ccc(-n2nc(C(=O)NN3CCCCC3)c(C)c2-c2ccc(Cl)cc2)cc1 [O-1255] | 460 nM | 6 fold | – | 74.7 nM | 310 nM | 4 fold | 113 nM | – | – | – | – | – | – | – |
| CCCCCc1ccc(-c2c(C)c(C(=O)NN3CCCCC3)nn2-c2ccc(Cl)cc2Cl)cc1 [O-1302, [I]N[/I]-(piperidin-1-yl)-1-(2,4-dichlorophenyl)-4-methyl-5-(4-pentylphenyl)-1H-pyrazole-3-carboxamide] | 38.4 nM | – | – | 1.1 nM | 26.2 nM | – | 2.6 nM | – | – | – | – | – | – | – |
| CCCCC(C)c1ccc(-c2c(-c3ccc(Cl)cc3Cl)nn(N3CCCCC3)c2C)cc1 (stereo not drawn) [O-1690, N-(N-piperdyl)-3-(2,4-dichlrophenyl)-4-(4′-(1′-methylpentyl)phenyl)-5-methylpyrazole] | 77.3 nM | – | – | 0.96 nM | 23.3 nM | – | 2 nM | – | – | – | – | – | – | – |
| CC1=CC[C@@H]2[C@@H](C1)c1ccc(CC#CCCCNS(C)(=O)=O)cc1OC2(C)C [O-2050, (6aR,10aR)-3-(1-methanesulfonylamino-4-hexyn-6-yl)-6a,7, 10,10a-tetrahydro-6,6,9-trimethyl-6H-dibenzo[b,d]pyran] | 166 nM | 49 fold | 3.4 nM | 68.6 nM | 148 nM | 44 fold | 40.2 nM | – | – | – | – | – | 20 fold | 12 fold |
